Laboratory results as given in paper PMC5218480 (PLoS ONE, 2017).

Test system: MV-4-11 cells
Assay: Gene expression microarray analysis (Affymetrix PrimeView) and GSEA
Format: cell-based, human
Design: RFU PODN (11730768_x_at) / Fold change /veh PODN (11730768_x_at) / RFU LINC00158 (11744669_a_at) / Fold change /veh LINC00158 (11744669_a_at) / RFU DUSP10 (11751237_a_at) / Fold change /veh DUSP10 (11751237_a_at) / RFU ID3 (11757404_x_at) / Fold change /veh ID3 (11757404_x_at) / RFU PLEKHG5 (11737974_s_at) / Fold change /veh PLEKHG5 (11737974_s_at) / RFU LRRC4B (11730491_at) / Fold change /veh LRRC4B (11730491_at) / RFU GIMAP4 (11747438_a_at) / Fold change /veh GIMAP4 (11747438_a_at) / RFU KRT8 (11758183_x_at) / Fold change /veh KRT8 (11758183_x_at) / RFU CNN1 (11734310_a_at) / Fold change /veh CNN1 (11734310_a_at) / RFU VPS37D (11726825_at) / Fold change /veh VPS37D (11726825_at) / RFU C10orf10 (11716522_x_at) / Fold change /veh C10orf10 (11716522_x_at) / RFU KIR2DL2 /// KIR2DL4 /// KIR2DL5A /// KIR2DL5B /// KIR2DS1 /// KIR2DS2 /// KIR2DS3 /// KIR2DS4 /// KIR3DL3 /// KIR3DL3 /// KIR3DS1 (11738374_at) / Fold change /veh KIR2DL2 /// KIR2DL4 /// KIR2DL5A /// KIR2DL5B /// KIR2DS1 /// KIR2DS2 /// KIR2DS3 /// KIR2DS4 /// KIR3DL3 /// KIR3DL3 /// KIR3DS1 (11738374_at) / RFU C1QL1 (11718748_at) / Fold change /veh C1QL1 (11718748_at) / RFU TMPRSS4 (11747572_a_at) / Fold change /veh TMPRSS4 (11747572_a_at) / RFU HAMP (11756126_x_at) / Fold change /veh HAMP (11756126_x_at) / RFU RNFT2 (11725882_a_at) / Fold change /veh RNFT2 (11725882_a_at) / RFU NR4A2 (11747474_a_at) / Fold change /veh NR4A2 (11747474_a_at) / RFU ABCC12 (11746883_a_at) / Fold change /veh ABCC12 (11746883_a_at) / RFU TMEM136 (11760407_x_at) / Fold change /veh TMEM136 (11760407_x_at) / RFU CLDN22 /// WWC2 (11732394_at) / Fold change /veh CLDN22 /// WWC2 (11732394_at) / RFU HLA-DPB1 (11760878_x_at) / Fold change /veh HLA-DPB1 (11760878_x_at) / RFU SPINT1 (11716480_a_at) / Fold change /veh SPINT1 (11716480_a_at) / RFU GAP43 (11754022_s_at) / Fold change /veh GAP43 (11754022_s_at) / RFU A4GNT (11735810_at) / Fold change /veh A4GNT (11735810_at) / RFU PRB3 (11715151_x_at) / Fold change /veh PRB3 (11715151_x_at) / RFU TUBB4B (11761932_at) / Fold change /veh TUBB4B (11761932_at) / RFU CAPN14 (11732068_a_at) / Fold change /veh CAPN14 (11732068_a_at) / RFU TMCC2 (11721928_a_at) / Fold change /veh TMCC2 (11721928_a_at) / RFU IRGQ (11745062_a_at) / Fold change /veh IRGQ (11745062_a_at) / RFU FAM174B (11720279_a_at) / Fold change /veh FAM174B (11720279_a_at) / RFU TMPRSS4 (11748680_a_at) / Fold change /veh TMPRSS4 (11748680_a_at) / RFU FAM212B (11763350_a_at) / Fold change /veh FAM212B (11763350_a_at) / RFU PLEKHG5 (11743358_a_at) / Fold change /veh PLEKHG5 (11743358_a_at) / RFU ZSCAN30 (11745921_a_at) / Fold change /veh ZSCAN30 (11745921_a_at) / RFU CMKLR1 (11741424_a_at) / Fold change /veh CMKLR1 (11741424_a_at) / RFU LOC101060620 /// MAPK8IP1 (11723275_at) / Fold change /veh LOC101060620 /// MAPK8IP1 (11723275_at) / RFU SPTSSB (11747773_x_at) / Fold change /veh SPTSSB (11747773_x_at) / RFU PRSS12 (11739890_at) / Fold change /veh PRSS12 (11739890_at) / RFU BIN1 (11741810_x_at) / Fold change /veh BIN1 (11741810_x_at) / RFU WNT11 (11732464_a_at) / Fold change /veh WNT11 (11732464_a_at) / RFU C10orf10 (11716521_a_at) / Fold change /veh C10orf10 (11716521_a_at) / RFU C5orf56 (11738089_at) / Fold change /veh C5orf56 (11738089_at) / RFU CYB561 (11721691_x_at) / Fold change /veh CYB561 (11721691_x_at) / RFU ANKRD19P (11752326_a_at) / Fold change /veh ANKRD19P (11752326_a_at) / RFU OR2T12 /// OR2T33 /// OR2T8 (11738714_s_at) / Fold change /veh OR2T12 /// OR2T33 /// OR2T8 (11738714_s_at) / RFU VCAN (11748164_a_at) / Fold change /veh VCAN (11748164_a_at) / RFU JSRP1 (11732532_at) / Fold change /veh JSRP1 (11732532_at) / RFU KRTAP10-11 (11738290_x_at) / Fold change /veh KRTAP10-11 (11738290_x_at) / RFU MYO3A (11730013_a_at) / Fold change /veh MYO3A (11730013_a_at) / RFU EBF3 (11725865_a_at) / Fold change /veh EBF3 (11725865_a_at) / RFU CAMK2N1 (11719241_x_at) / Fold change /veh CAMK2N1 (11719241_x_at) / RFU C5orf56 (11738088_a_at) / Fold change /veh C5orf56 (11738088_a_at) / RFU OLFML3 (11715873_a_at) / Fold change /veh OLFML3 (11715873_a_at) / RFU LOC100653217 /// NTM (11731650_a_at) / Fold change /veh LOC100653217 /// NTM (11731650_a_at) / RFU MAPK11 (11762145_a_at) / Fold change /veh MAPK11 (11762145_a_at) / RFU FIZ1 (11724087_x_at) / Fold change /veh FIZ1 (11724087_x_at) / RFU OASL (11726364_x_at) / Fold change /veh OASL (11726364_x_at) / RFU SOX15 (11748057_x_at) / Fold change /veh SOX15 (11748057_x_at) / RFU CD79A (11719716_a_at) / Fold change /veh CD79A (11719716_a_at) / RFU HIST1H1D (11736915_at) / Fold change /veh HIST1H1D (11736915_at) / RFU CASKIN2 (11723855_a_at) / Fold change /veh CASKIN2 (11723855_a_at) / RFU LOC730098 (11760151_x_at) / Fold change /veh LOC730098 (11760151_x_at) / RFU OR4N2 (11742367_at) / Fold change /veh OR4N2 (11742367_at) / RFU PRRT2 (11749266_a_at) / Fold change /veh PRRT2 (11749266_a_at) / RFU SNX32 (11753110_a_at) / Fold change /veh SNX32 (11753110_a_at) / RFU CDHR5 (11726645_a_at) / Fold change /veh CDHR5 (11726645_a_at) / RFU RCAN1 (11760418_a_at) / Fold change /veh RCAN1 (11760418_a_at) / RFU FAM167A (11723789_a_at) / Fold change /veh FAM167A (11723789_a_at) / RFU FAM26E (11764081_at) / Fold change /veh FAM26E (11764081_at) / RFU ISYNA1 (11749810_s_at) / Fold change /veh ISYNA1 (11749810_s_at) / RFU ACY1 (11761880_at) / Fold change /veh ACY1 (11761880_at) / RFU 11764098_at / Fold change /veh 11764098_at / RFU SAMD14 (11745864_x_at) / Fold change /veh SAMD14 (11745864_x_at) / RFU NPB (11741838_a_at) / Fold change /veh NPB (11741838_a_at) / RFU TMPRSS6 (11731388_a_at) / Fold change /veh TMPRSS6 (11731388_a_at) / RFU KRTAP10-2 (11738614_at) / Fold change /veh KRTAP10-2 (11738614_at) / RFU ARHGAP8 /// PRR5-ARHGAP8 (11727945_x_at) / Fold change /veh ARHGAP8 /// PRR5-ARHGAP8 (11727945_x_at) / RFU KRTAP5-7 /// NADSYN1 (11734609_at) / Fold change /veh KRTAP5-7 /// NADSYN1 (11734609_at) / RFU RASL12 (11751679_a_at) / Fold change /veh RASL12 (11751679_a_at) / RFU CDKN2B (11736163_a_at) / Fold change /veh CDKN2B (11736163_a_at) / RFU PRF1 (11729649_at) / Fold change /veh PRF1 (11729649_at) / RFU, ZNF638 /// ZNF638-IT1 / Fold change vs veh, ZNF638 /// ZNF638-IT1 / RFU, PANK3 / Fold change vs veh, PANK3 / RFU, SH3YL1 / Fold change vs veh, SH3YL1 / RFU, ZEB2 / Fold change vs veh, ZEB2 / RFU, NRIP1 / Fold change vs veh, NRIP1 / RFU, PTTG1IP / Fold change vs veh, PTTG1IP / RFU, CAPN2 / Fold change vs veh, CAPN2 / RFU, MED14 / Fold change vs veh, MED14 / RFU, SNORA58 / Fold change vs veh, SNORA58 / RFU, C1orf63 / Fold change vs veh, C1orf63 / RFU, LRRFIP1 / Fold change vs veh, LRRFIP1 / RFU, NDUFAF7 / Fold change vs veh, NDUFAF7 / RFU, SLC12A2 / Fold change vs veh, SLC12A2 / RFU, IBTK / Fold change vs veh, IBTK / RFU, ESF1 / Fold change vs veh, ESF1 / Fold change vs veh, TMEM50B / RFU, TAOK1 / Fold change vs veh, TAOK1 / RFU, ACBD3 / Fold change vs veh, ACBD3 / RFU, TMA16 / Fold change vs veh, TMA16 / RFU, RWDD3 / Fold change vs veh, RWDD3 / RFU, BCAT1 / Fold change vs veh, BCAT1 / RFU, EDEM3 / Fold change vs veh, EDEM3 / RFU, TMEM33 / Fold change vs veh, TMEM33 / RFU, WDR75 / Fold change vs veh, WDR75 / RFU, AHCTF1 / Fold change vs veh, AHCTF1 / RFU, TFRC / Fold change vs veh, TFRC / RFU, ZDHHC17 / Fold change vs veh, ZDHHC17 / RFU, NOM1 / Fold change vs veh, NOM1 / RFU, ARL8B / Fold change vs veh, ARL8B / RFU, ZBTB11 / Fold change vs veh, ZBTB11 / RFU, TAMM41 / Fold change vs veh, TAMM41 / RFU, KIAA1704 /// LOC100996395 / Fold change vs veh, KIAA1704 /// LOC100996395 / RFU, ING1 / Fold change vs veh, ING1 / RFU, TRMT61B / Fold change vs veh, TRMT61B / RFU, FUBP3 / Fold change vs veh, FUBP3 / RFU, TP53 / Fold change vs veh, TP53 / RFU, TNKS2 / Fold change vs veh, TNKS2 / RFU, ZFP14 / Fold change vs veh, ZFP14 / RFU, ACTR2 / Fold change vs veh, ACTR2 / RFU, PPP3R1 / Fold change vs veh, PPP3R1 / RFU, PIK3R1 / Fold change vs veh, PIK3R1 / RFU, HNRNPA1 / Fold change vs veh, HNRNPA1 / RFU, RNF170 / Fold change vs veh, RNF170 / RFU, ZNF28 / Fold change vs veh, ZNF28 / RFU, RNGTT / Fold change vs veh, RNGTT / RFU, OGT / Fold change vs veh, OGT / RFU, BRD1 / Fold change vs veh, BRD1 / RFU, MARS / Fold change vs veh, MARS / RFU, ZNF655 / Fold change vs veh, ZNF655 / RFU, FAHD1 / Fold change vs veh, FAHD1 / RFU, BDP1 / Fold change vs veh, BDP1 / RFU, LRRCC1 / Fold change vs veh, LRRCC1 / RFU, ARID1A / Fold change vs veh, ARID1A / RFU, ZNF146 / Fold change vs veh, ZNF146 / RFU, ZNF330 / Fold change vs veh, ZNF330 / RFU, GPN3 / Fold change vs veh, GPN3 / RFU, C9orf123 / Fold change vs veh, C9orf123 / RFU, N4BP2L2 / Fold change vs veh, N4BP2L2 / RFU, ARFIP1 / Fold change vs veh, ARFIP1 / RFU, FAM179B / Fold change vs veh, FAM179B / RFU, BCL10 / Fold change vs veh, BCL10 / RFU, UHRF1BP1L / Fold change vs veh, UHRF1BP1L / RFU, BET1 / Fold change vs veh, BET1 / RFU, CNOT2 / Fold change vs veh, CNOT2 / RFU, ZNF268 / Fold change vs veh, ZNF268 / Fold change vs veh, ZNF507 / RFU, DGCR2 / Fold change vs veh, DGCR2 / RFU, WDSUB1 / Fold change vs veh, WDSUB1 / Fold change vs veh, HSP90B1 /// MIR3652 / RFU, ADSS / Fold change vs veh, ADSS / RFU, GK / Fold change vs veh, GK / RFU, ZNF148 / Fold change vs veh, ZNF148 / RFU, TAF9 / Fold change vs veh, TAF9 / RFU, SLC1A5 / Fold change vs veh, SLC1A5 / RFU, SLMO2 / Fold change vs veh, SLMO2 / RFU, ABCC4 / Fold change vs veh, ABCC4 / RFU, LOC101060439 /// RAP1B / Fold change vs veh, LOC101060439 /// RAP1B / RFU, RFX7 / Fold change vs veh, RFX7 / RFU, GTPBP10 / Fold change vs veh, GTPBP10 / RFU, CNEP1R1 / Fold change vs veh, CNEP1R1 / RFU, BIVM-ERCC5 /// ERCC5 / Fold change vs veh, BIVM-ERCC5 /// ERCC5 / RFU, ILF3 / Fold change vs veh, ILF3 / RFU 11762660_at / Fold change /veh 11762660_at / RFU VCAN (11757783_s_at) / Fold change /veh VCAN (11757783_s_at) / RFU DDX43 (11728927_at) / Fold change /veh DDX43 (11728927_at) / RFU KRT8 (11758188_x_at) / Fold change /veh KRT8 (11758188_x_at) / RFU NKD1 (11759106_at) / Fold change /veh NKD1 (11759106_at) / RFU SRD5A1 (11742802_a_at) / Fold change /veh SRD5A1 (11742802_a_at) / RFU TPSAB1 /// TPSB2 (11721975_s_at) / Fold change /veh TPSAB1 /// TPSB2 (11721975_s_at) / RFU GSTM3 (11746129_a_at) / Fold change /veh GSTM3 (11746129_a_at) / RFU IL23R (11737362_x_at) / Fold change /veh IL23R (11737362_x_at) / RFU TMEM51 (11727254_a_at) / Fold change /veh TMEM51 (11727254_a_at) / RFU PIWIL2 (11732686_x_at) / Fold change /veh PIWIL2 (11732686_x_at) / RFU ORM1 (11744905_x_at) / Fold change /veh ORM1 (11744905_x_at) / RFU CCDC152 (11743942_at) / Fold change /veh CCDC152 (11743942_at) / RFU ECM1 (11717891_a_at) / Fold change /veh ECM1 (11717891_a_at) / RFU IL23R (11748794_a_at) / Fold change /veh IL23R (11748794_a_at) / RFU TNFAIP8L3 (11732012_x_at) / Fold change /veh TNFAIP8L3 (11732012_x_at) / RFU MBOAT4 (11741988_at) / Fold change /veh MBOAT4 (11741988_at) / RFU 11764193_at / Fold change /veh 11764193_at / RFU TMEM53 (11763286_at) / Fold change /veh TMEM53 (11763286_at) / RFU MAGEB2 (11727129_at) / Fold change /veh MAGEB2 (11727129_at) / RFU TMEM200A (11744735_a_at) / Fold change /veh TMEM200A (11744735_a_at) / RFU CCDC152 (11751479_a_at) / Fold change /veh CCDC152 (11751479_a_at) / RFU FAM211A (11726209_a_at) / Fold change /veh FAM211A (11726209_a_at) / RFU RGS16 (11746705_a_at) / Fold change /veh RGS16 (11746705_a_at) / RFU VCAN (11755009_s_at) / Fold change /veh VCAN (11755009_s_at) / RFU RHOB (11743442_s_at) / Fold change /veh RHOB (11743442_s_at) / RFU RGS16 (11720943_a_at) / Fold change /veh RGS16 (11720943_a_at) / RFU RGS16 (11720944_at) / Fold change /veh RGS16 (11720944_at) / RFU, VPS4B / Fold change vs veh, VPS4B / RFU, CREB1 / Fold change vs veh, CREB1 / RFU, DNAJC13 / Fold change vs veh, DNAJC13 / RFU, GNAQ / Fold change vs veh, GNAQ / RFU, CDK5R1 / Fold change vs veh, CDK5R1 / RFU, ZRANB3 / Fold change vs veh, ZRANB3 / RFU, CUL4A / Fold change vs veh, CUL4A / RFU, CCNY / Fold change vs veh, CCNY / RFU, UFL1 / Fold change vs veh, UFL1 / RFU, COG3 / Fold change vs veh, COG3 / RFU, DIAPH2 / Fold change vs veh, DIAPH2 / RFU, SKA2 / Fold change vs veh, SKA2 / RFU, AFF3 / Fold change vs veh, AFF3 / RFU, LMF1 / Fold change vs veh, LMF1 / RFU, IPO11 / Fold change vs veh, IPO11 / RFU, DFFB / Fold change vs veh, DFFB / RFU, FOXP1 / Fold change vs veh, FOXP1 / RFU, CARD8 / Fold change vs veh, CARD8 / RFU, STRN3 / Fold change vs veh, STRN3 / RFU, ADK / Fold change vs veh, ADK / RFU, RASSF2 / Fold change vs veh, RASSF2 / RFU, WIPF1 / Fold change vs veh, WIPF1 / RFU, LARP1B / Fold change vs veh, LARP1B / RFU, RASA1 / Fold change vs veh, RASA1 / RFU, RB1 / Fold change vs veh, RB1 / RFU, PPFIA1 / Fold change vs veh, PPFIA1 / RFU, MAT2A / Fold change vs veh, MAT2A / RFU, CCT5 / Fold change vs veh, CCT5 / RFU, WDR92 / Fold change vs veh, WDR92 / RFU, CUX1 / Fold change vs veh, CUX1 / RFU, TTC7A / Fold change vs veh, TTC7A / RFU, TMEM135 / Fold change vs veh, TMEM135 / RFU, DEPTOR / Fold change vs veh, DEPTOR / RFU, CPM / Fold change vs veh, CPM / RFU, DNAJB6 / Fold change vs veh, DNAJB6 / RFU, CACNA2D3 / Fold change vs veh, CACNA2D3 / RFU, DTX4 / Fold change vs veh, DTX4 / RFU, TFCP2 / Fold change vs veh, TFCP2 / RFU, GMCL1 /// GMCL1P1 / Fold change vs veh, GMCL1 /// GMCL1P1 / RFU, AEBP2 / Fold change vs veh, AEBP2 / RFU, SNHG1 /// SNORD22 /// SNORD25 /// SNORD26 /// SNORD27 /// SNORD28 /// SNORD29 /// SNORD31 / Fold change vs veh, SNHG1 /// SNORD22 /// SNORD25 /// SNORD26 /// SNORD27 /// SNORD28 /// SNORD29 /// SNORD31 / Fold change (Aza/veh), C12orf56 (ProbeSet 11735607_a_at) / Fold change (ACY-1035/veh), C12orf56 (ProbeSet 11735607_a_at) / Fold change (Aza/veh), FGFR1OP (ProbeSet 11751329_s_at) / Fold change (ACY-1035/veh), FGFR1OP (ProbeSet 11751329_s_at) / Fold change (Aza/veh), VPS36 (ProbeSet 11739960_a_at) / Fold change (ACY-1035/veh), VPS36 (ProbeSet 11739960_a_at) / RFU SYPL1 (11715823_x_at) / Fold change /veh SYPL1 (11715823_x_at) / RFU IGFBP7 (11715501_s_at) / Fold change /veh IGFBP7 (11715501_s_at) / RFU REEP3 (11722064_at) / Fold change /veh REEP3 (11722064_at) / RFU IGLL1 (11728026_x_at) / Fold change /veh IGLL1 (11728026_x_at): dose or concentration left out as unconfirmed
Conditions: ProbeSet 11758170_s_at; LIST D

`Nc1ncn([C@@H]2O[C@H](CO)[C@@H](O)[C@H]2O)c(=O)n1` [azacitidine] was tested, and the “RFU, DIAPH2” value was 23.40 RFU.
